Experiments:
S. aureus 1241 = assay: CLSM analysis, biofilm removal (preformed biofilm); assay type: cell-based, Staphylococcus aureus; details: 20 h exposure, mean ± SD; for Thickness (µm) MICBM80: substance at its MIC; for Thickness (µm) subCBM80: substance at subinhibitory concentration
Experimental: (§1) Biofilm prevention and removal analyses were performed using previously determined minimum inhibitory and subinhibitory concentrations for metabolic activity (MICBM80, subCBM80; MICMPB80, subCMPB80) of NAC, RLs, and UA specific for each tested strain. Selected concentrations were used to evaluate the inhibition of biofilm formation (biofilm prevention) and the reduction in previously formed biofilms (biofilm removal) for the same set of microorganisms, with the exception of S. Infantis, which was excluded from the analysis due to its inability to form biofilm in the selected microtiter plate. Biofilm prevention and removal were observed using CLSM with specific staining to distinguish between live and membrane-compromised cells. Images were analyzed to evaluate (i). the total volume of the biomass, (ii). ratios of live and membrane-compromised cells, and (iii). to calculate biofilm volume reduction for individual organisms after the respective treatment types. The total biofilm volume was normalized by the area of the well and expressed as an average biofilm thickness. Complete data are provided in Supplementary Materials (Tables S1–S8).
(§2) At first, bacterial suspensions were cultivated in microtiter plates to produce overnight biofilms (18 h). […] cells were then washed out, and the remaining biofilms were further cultivated for an additional 20 h with selected compounds. Following biofilm cultivation, biomass was observed using CLSM with live/membrane-compromised cell staining. Biomass images from biofilm removal treatments were similar to results from biofilm prevention, where biomass was highly diversified across the bacterial species and strains. Visually, biomass images were fairly consistent within the quadruplicates for each tested organism. Non-treated biofilms of S. aureus contained consistent biomass spread across the well (S. aureus 816) or grown around the edges (S. aureus 1241). […] PI staining identified membrane-compromised cells spread across S. aureus 816 biomass and incorporated in the edge of biomass and/or in the central part of the well (Figure 4B,C). […] Membrane-compromised cells appeared contained around the edges (S. aureus 1241), disturbed across the well (in both strains of L. monocytogenes), or in separated biomass in the central part of the well (in both strains of E. coli when treated with the subinhibitory concentration of RLs) (Figure 4D,E).
(§3) For both inhibition and reduction of biofilms, overnight cultures from BHI were diluted in TSB + 1% Glc to reach an absorbance of 0.08 to 0.1 at 625 nm. The inoculum (150 µL) was transferred into wells of the 96-well flat-bottomed Ibidiμ-Plate (Ibidi, Gräfelfing, Germany) and mixed with 150 µL of each of the three tested substances in technical quadruplicates, followed by incubation at 37 °C for 24 h. Simultaneously, the prepared bacterial suspensions were inoculated to an additional microtiter plate (200 µL) and allowed to form biofilm overnight (18 h at 37 °C). After the incubation, the content of the well was drained off, and 200 µL of each of the three tested substances was added to the plate, which was then incubated for an additional 20 h. The used concentrations of the substances represented the subinhibitory and minimum inhibitory concentrations for metabolic activity (subCBM80, MICBM80; subCMPB80, MICMPB80). Both setups contained a positive control of the bacterial growth (inoculum mixed with sterile TSB + 1% Glc medium) and a control monitoring microbial contamination (sterile medium). Non-treated wells were used as a positive control for comparison between non-treated and treated biofilm mass.
(§4) Prior to the imaging, the wells were stained with the LIVE/DEAD® BacLight™ Bacterial Viability Kit (Thermo Fisher Scientific, MA, USA) following the manufacturer’s guidelines and Drago et al.. […]

S. aureus 816 = assay: CLSM analysis, biofilm removal (preformed biofilm); assay type: cell-based, Staphylococcus aureus; details: for proportion of membrane-compromised cells: 20 h; for Thickness (µm) subCBM80: substance at subinhibitory concentration
Experimental: as §1, §2, §3, §4

L. monocytogenes 164 = assay: MIC for reduction of preformed biofilm (crystal violet staining); assay type: cell-based, Listeria monocytogenes; details: for MICBR80: ≥80% reduction of preformed biofilm (18 h), 20 h with substance
Experimental: (§5) Ten concentrations of NAC, RLs, and UA were tested to determine the minimum inhibitory concentration for planktonic growth, and subsequently, the six highest concentrations were applied on preformed biofilms to evaluate the biofilm eradication ability of the compounds. MIC was defined as the lowest substance concentration able to inhibit at least 80% of microbial growth (MICPC80 for planktonic cells, MICBC80 for further growth of biofilm cells), inhibit 80% of metabolic activity (MICBM80 for biofilm metabolic activity, MICMPB80 for metabolic activity of preformed biofilm), prevent biofilm formation by at least 80% (MICBF80 for biofilm formation), or reduce a preformed biofilm by at least 80% (MICBR80 for biofilm reduction). The results of MICs are summarized in Table 1 (planktonic cells) and Table 2 (biofilm-associated cells).
(§6) The determination of MICs was performed according to Chlumsky et al.. Briefly, 96-well flat-bottomed microtiter plates were inoculated with 75 µL (for biofilm formation) or 100 µL (for preformed biofilm) of bacterial suspension (A625nm 0.08 to 0.1) in technical triplicates and were then carefully mixed with the dilution series of the test substances (24 h cultivation at 25 °C for S. Infantis, 37 °C for other strains) or were directly cultivated to preform biofilms (18 h). For a positive control of bacterial growth, the inoculum was mixed with a pure sterile medium. Furthermore, the sterile medium was included in the plate as a marker of potential microbial contamination. To evaluate planktonic cells growth (MICPC80) and further growth of biofilm cells (MICBC80), the optical density of the content of the microtiter plates was measured spectrophotometrically at 625 nm before and after 24 h (for biofilm formation) of cultivation or before and after additional 20 h incubation with the tested compound (for preformed biofilm). The difference of A625nm was considered as a measure of the ability of cells to grow in the presence of the tested substances. To evaluate the inhibition of biofilm formation (MICBF80) and reduction in preformed biofilms (MICBR80), biomass was quantified using crystal violet staining, and its metabolic activity (MICBM80 and MICMPB80) was estimated by using the MTT (thiazyl tetrazolium bromide, Sigma-Aldrich, USA) reduction assay, both measured spectrophotometrically at 595 nm.
(§7) All inhibitions were calculated using the formula of Chlumsky et al. below (Equation (1)):(1) A625(595)nm inhibition (%)=A625(595)nm (control) – A625(595)nm(natural substance)/A625(595)nm (control)× 100 where A625(595)nm (control) is the absorbance of bacterial suspension/biofilm itself, and A625(595)nm(natural substance) is the absorbance of the bacterial suspension/biofilm with the added natural substance (NAC, RLs, and UA).
(§8) When the minimum inhibitory concentration could not be determined, the MIC was established as >the highest tested concentration for NAC, RLs, and UA.

L. monocytogenes 149 = assay: as above; assay type: cell-based, Listeria monocytogenes; details: for MICBR80: ≥80% reduction of preformed biofilm (18 h), 20 h with substance
Experimental: as §5, §6, §7, §8

[1] = preformed biofilm, 20 h exposure, mean ± SD
[2] = preformed biofilm, within tested concentrations

Row | SMILES | Thickness (µm) MICBM80 (S. aureus 1241) [µm] | Thickness (µm) subCBM80 (S. aureus 1241) [µm] | proportion of membrane-compromised cells (S. aureus 816; subinhibitory concentration) | Thickness (µm) subCBM80 (S. aureus 816; [1]) [µm] | MICBR80 (L. monocytogenes 164) | maximal achieved inhibition (MICBR80 not reached), biofilm reduction (L. monocytogenes 149; [2]) [%] | MICBR80 (L. monocytogenes 149) | proportion of membrane-compromised cells (S. aureus 816; MIC) | Thickness (µm) MICBM80 (S. aureus 816; preformed biofilm, 20 h exposure, substance at its MIC, mean ± SD) [µm] | maximal achieved inhibition (MICBR80 not reached), biofilm reduction (L. monocytogenes 164; [2]) [%]
1 | CC(=O)c1c(O)c(C)c(O)c2c1OC1=CC(=O)C(C(C)=O)C(=O)C12C (single isomer, unassigned; (+)) [UA, (+)-usnic acid] | 210 ± 32.5 | 251 ± 15.7 | up to 40% | 152 ± 68.6 | 1.96 µg/mL | 69 | > 31.3 µg/mL | – | – | –
2 | CC(=O)N[C@@H](CS)C(=O)O [NAC, N-Acetyl-L-cysteine] | 253 ± 44.4 | 266 ± 37.9 | – | 247 ± 64.7 | > 100,000 µg/mL | – | 100,000 µg/mL | up to 20% | 156 ± 80.4 | 46
